The numbers were not newly measured in US12564599B2, “Pharmaceutical composition comprising tetrahydrocannabivarin for the prevention and treatment of overweight” (CepVentures International Corporation, priority 2019, dated 2026), which cites them from elsewhere.

Structures are written as SMILES.

The conditions of this data set: over a 6 month or a 1 year period.

Consider `CC(C)CC(N(C)C)C1(c2ccc(Cl)cc2)CCC1` (stereo not shown) [Sibutramine], for which the reduces body weight entry is “about 10%”.
